Test [1] addresses EGFR L858R/T790M/C797S (Homo sapiens, UniProt P00533, C797S/L858R/T790M). Description: Biochemical EGFR kinase assay (Lance Ultra TR-FRET), triple mutant L858R/T790M/C797S. The gist of the method: (§1)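 In this biochemical assay, phosphorylation after a one-hour room-temperature reaction was detected with europium-labelled anti-phosphopeptide antibody at 2 nM final concentration.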
(In general: In TR-FRET formats the signal depends on donor and acceptor labels being close together.)

Test [2] has as its target EGFR del19/C797S (Homo sapiens, UniProt P00533, C797S/DEL746-750). Briefly: Biochemical EGFR kinase assay (Lance Ultra TR-FRET), double mutant del19/C797S. The gist of the method: as §1
Test [3] addresses EGFR wildtype (Homo sapiens, UniProt P00533). Description: Biochemical EGFR kinase assay (Lance Ultra TR-FRET), wildtype. Put shortly: as §1
The target in test [4] is EGFR del19/T790M/C797S (Homo sapiens, UniProt P00533, C797S/DEL746-750/T790M). Description: Biochemical EGFR kinase assay (Lance Ultra TR-FRET), triple mutant del19/T790M/C797S. The gist of the method: as §1
Chain of EGFR del19/T790M/C797S (P00533 with tags, fused parts or gaps DEL746-750/T790M/C797S): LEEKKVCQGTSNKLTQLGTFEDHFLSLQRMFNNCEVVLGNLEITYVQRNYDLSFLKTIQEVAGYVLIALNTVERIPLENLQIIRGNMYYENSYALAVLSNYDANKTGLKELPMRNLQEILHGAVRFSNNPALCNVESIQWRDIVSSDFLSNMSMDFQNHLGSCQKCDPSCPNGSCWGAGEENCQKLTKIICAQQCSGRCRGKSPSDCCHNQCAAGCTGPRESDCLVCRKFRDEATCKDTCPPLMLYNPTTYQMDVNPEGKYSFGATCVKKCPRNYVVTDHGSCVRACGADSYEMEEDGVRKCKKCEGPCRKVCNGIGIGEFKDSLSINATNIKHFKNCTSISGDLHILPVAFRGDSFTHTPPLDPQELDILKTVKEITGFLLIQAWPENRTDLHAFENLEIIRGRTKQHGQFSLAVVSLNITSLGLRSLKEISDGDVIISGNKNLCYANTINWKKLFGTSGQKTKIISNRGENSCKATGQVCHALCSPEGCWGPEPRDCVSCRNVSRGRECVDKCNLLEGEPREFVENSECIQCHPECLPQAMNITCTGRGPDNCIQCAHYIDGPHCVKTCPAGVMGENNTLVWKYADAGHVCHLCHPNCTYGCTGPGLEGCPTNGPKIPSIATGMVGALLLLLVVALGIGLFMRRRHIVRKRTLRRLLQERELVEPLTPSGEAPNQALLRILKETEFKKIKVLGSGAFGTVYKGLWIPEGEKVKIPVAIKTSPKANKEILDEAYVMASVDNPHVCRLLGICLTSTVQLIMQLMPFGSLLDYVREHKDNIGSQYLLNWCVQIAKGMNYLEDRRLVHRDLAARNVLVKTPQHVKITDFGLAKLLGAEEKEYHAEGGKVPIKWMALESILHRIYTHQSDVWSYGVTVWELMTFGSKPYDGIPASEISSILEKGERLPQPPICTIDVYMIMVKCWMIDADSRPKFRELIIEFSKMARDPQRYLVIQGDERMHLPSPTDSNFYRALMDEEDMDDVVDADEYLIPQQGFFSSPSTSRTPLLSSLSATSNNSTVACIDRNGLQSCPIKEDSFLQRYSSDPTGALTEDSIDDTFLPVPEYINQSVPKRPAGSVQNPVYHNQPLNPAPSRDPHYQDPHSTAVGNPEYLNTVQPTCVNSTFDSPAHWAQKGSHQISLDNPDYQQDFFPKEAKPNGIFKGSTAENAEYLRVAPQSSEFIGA
In test [5] the target is EGFR L858R/C797S (Homo sapiens, UniProt P00533, C797S/L858R). Briefly: Biochemical EGFR kinase assay (Lance Ultra TR-FRET), double mutant L858R/C797S. Put shortly: as §1
Chain of EGFR L858R/C797S (P00533 25-1210 C797S/L858R): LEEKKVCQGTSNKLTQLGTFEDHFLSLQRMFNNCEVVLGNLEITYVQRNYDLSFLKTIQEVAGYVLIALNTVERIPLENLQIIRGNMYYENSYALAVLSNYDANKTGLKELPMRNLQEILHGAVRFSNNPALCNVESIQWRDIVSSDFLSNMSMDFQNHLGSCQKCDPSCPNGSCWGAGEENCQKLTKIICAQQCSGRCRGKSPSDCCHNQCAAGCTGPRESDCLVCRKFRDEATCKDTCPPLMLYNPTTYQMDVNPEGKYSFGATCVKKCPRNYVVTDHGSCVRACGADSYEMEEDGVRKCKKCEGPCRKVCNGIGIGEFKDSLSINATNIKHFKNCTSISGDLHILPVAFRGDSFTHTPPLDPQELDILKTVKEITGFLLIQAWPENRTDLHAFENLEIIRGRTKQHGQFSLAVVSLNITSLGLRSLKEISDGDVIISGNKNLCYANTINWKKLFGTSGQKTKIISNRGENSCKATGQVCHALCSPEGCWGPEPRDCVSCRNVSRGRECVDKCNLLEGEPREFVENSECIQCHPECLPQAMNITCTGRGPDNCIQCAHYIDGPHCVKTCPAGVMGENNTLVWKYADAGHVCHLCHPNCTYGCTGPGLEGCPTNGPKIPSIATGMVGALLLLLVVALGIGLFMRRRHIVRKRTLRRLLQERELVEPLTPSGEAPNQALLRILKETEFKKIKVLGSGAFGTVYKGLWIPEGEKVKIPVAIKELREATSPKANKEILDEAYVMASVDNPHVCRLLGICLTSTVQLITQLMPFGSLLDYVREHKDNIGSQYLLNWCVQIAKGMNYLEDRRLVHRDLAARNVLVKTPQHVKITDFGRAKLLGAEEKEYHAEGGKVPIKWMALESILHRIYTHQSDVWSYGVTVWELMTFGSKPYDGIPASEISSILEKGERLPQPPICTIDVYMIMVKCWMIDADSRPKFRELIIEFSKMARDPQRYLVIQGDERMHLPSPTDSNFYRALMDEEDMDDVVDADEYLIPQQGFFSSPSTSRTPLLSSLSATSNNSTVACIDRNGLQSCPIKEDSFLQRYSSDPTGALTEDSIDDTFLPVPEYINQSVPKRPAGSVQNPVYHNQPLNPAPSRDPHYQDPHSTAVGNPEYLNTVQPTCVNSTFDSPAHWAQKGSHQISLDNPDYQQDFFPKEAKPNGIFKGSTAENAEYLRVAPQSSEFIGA
Where [6] appears, read: ATP at Km, read-out: IC50 L858R/T790M/C797S, Km ATP.
Where [7] appears, read: ATP at Km, read-out: IC50 del19/C797S, Km ATP.
The mark [8] stands for this setting: ATP at Km, read-out: IC50 WT, Km ATP.
The mark [9] stands for this setting: ATP at Km, read-out: IC50 del19/T790M/C797S, Km ATP.
Setting [10] is: ATP at Km, read-out: IC50 L858R/C797S, Km ATP.
[11] abbreviates: Km ATP, read-out: IC50 L858R/T790M/C797S (nM) Km ATP.
[12] abbreviates: Km ATP, read-out: IC50 del19/C797S (nM) Km ATP.
[13] abbreviates: Km ATP, read-out: IC50 WT (nM) Km ATP.
Setting [14] is: Km ATP, read-out: IC50 del19/T790M/C797S (nM) Km ATP.
Setting [15] is: Km ATP, read-out: IC50 L858R/C797S (nM) Km ATP.
The mark [16] stands for this setting: IC50 L858R/T790M/C797S (nM) 100 μM ATP, 100 μM ATP.
The mark [17] stands for this setting: IC50 del19/C797S (nM) 100 μM ATP, 100 μM ATP.
Where [18] appears, read: IC50 WT (nM) 100 μM ATP, 100 μM ATP.
[19] abbreviates: IC50 del19/T790M/C797S (nM) 100 μM ATP, 100 μM ATP.
[20] abbreviates: IC50 L858R/C797S (nM) 100 μM ATP, 100 μM ATP.
Where [21] appears, read: IC50 L858R/T790M/C797S, 100 μM ATP.
Where [22] appears, read: IC50 del19/T790M/C797S, 100 μM ATP.

Our source for the IC50 values is patent US12258328B2, “6-membered heteroaryl-containing aminopyridine compounds as EGFR inhibitors” (YUHAN CORPORATION, priority 2021, dated 2025).

The structures appear in SMILES notation. Where two headings read alike, the source gives them in different places.

Chain of EGFR L858R/T790M/C797S (P00533 25-1210 T790M/C797S/L858R): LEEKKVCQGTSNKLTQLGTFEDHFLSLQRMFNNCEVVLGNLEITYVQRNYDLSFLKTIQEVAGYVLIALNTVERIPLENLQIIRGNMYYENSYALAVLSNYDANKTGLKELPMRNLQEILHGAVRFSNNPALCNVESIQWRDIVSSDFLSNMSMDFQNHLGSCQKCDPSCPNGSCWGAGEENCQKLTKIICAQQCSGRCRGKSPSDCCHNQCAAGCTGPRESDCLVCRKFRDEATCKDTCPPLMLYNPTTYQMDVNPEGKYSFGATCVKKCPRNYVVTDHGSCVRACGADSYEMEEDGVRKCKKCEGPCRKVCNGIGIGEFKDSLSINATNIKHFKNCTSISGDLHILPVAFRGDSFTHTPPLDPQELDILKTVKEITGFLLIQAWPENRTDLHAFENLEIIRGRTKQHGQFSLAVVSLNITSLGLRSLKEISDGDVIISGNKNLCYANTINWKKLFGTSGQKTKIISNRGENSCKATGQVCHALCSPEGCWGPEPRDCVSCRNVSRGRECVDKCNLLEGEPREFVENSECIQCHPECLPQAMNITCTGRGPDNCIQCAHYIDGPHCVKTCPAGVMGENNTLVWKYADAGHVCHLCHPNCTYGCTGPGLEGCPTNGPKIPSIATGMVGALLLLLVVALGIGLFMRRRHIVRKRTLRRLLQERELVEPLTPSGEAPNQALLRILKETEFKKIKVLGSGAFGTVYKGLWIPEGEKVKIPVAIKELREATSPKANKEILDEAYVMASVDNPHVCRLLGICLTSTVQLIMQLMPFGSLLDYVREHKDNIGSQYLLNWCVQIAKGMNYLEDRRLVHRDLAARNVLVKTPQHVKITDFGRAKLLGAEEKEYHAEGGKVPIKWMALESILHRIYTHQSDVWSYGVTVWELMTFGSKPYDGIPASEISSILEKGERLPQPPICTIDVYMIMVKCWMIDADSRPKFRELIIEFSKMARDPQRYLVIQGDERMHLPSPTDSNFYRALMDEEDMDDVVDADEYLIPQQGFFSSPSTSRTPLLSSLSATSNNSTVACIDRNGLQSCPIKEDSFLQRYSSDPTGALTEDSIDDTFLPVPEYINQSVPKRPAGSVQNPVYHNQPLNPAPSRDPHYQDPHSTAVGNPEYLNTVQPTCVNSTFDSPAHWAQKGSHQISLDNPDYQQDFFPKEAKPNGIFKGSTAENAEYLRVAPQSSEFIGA
Chain of EGFR wildtype (P00533 25-1210): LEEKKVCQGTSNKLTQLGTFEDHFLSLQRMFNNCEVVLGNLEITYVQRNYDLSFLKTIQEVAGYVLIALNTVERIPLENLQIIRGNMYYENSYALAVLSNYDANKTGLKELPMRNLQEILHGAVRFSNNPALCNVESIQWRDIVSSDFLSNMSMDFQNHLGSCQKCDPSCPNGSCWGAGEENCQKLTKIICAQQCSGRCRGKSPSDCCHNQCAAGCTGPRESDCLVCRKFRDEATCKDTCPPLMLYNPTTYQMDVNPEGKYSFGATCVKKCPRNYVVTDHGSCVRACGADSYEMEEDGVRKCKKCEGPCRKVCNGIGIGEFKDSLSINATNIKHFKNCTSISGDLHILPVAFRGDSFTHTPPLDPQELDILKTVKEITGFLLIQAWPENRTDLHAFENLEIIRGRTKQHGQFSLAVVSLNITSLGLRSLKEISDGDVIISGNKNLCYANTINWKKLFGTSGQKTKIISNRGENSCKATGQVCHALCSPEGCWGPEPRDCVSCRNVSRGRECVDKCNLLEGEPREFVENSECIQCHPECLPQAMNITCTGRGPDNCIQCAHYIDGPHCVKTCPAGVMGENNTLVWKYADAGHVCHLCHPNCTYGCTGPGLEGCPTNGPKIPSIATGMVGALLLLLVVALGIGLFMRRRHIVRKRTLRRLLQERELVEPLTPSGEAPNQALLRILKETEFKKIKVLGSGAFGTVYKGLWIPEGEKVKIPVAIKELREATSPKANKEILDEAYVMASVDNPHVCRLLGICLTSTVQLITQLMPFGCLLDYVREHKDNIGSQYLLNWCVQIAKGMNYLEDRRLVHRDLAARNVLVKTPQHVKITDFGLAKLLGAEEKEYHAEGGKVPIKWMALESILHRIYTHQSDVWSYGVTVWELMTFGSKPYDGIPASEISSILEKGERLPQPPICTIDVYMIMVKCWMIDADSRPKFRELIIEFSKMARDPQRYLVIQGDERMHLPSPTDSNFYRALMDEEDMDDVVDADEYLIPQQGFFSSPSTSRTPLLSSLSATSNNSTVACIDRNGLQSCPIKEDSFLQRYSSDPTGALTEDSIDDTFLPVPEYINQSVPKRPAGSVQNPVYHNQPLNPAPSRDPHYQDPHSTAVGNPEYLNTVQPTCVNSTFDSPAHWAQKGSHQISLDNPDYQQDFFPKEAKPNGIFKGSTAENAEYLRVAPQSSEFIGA

With `CN1CCC(Oc2ccc(-c3cnc(Nc4ccnc(-c5cnn(S(=O)(=O)C6CC6)c5)n4)cc3NC3CCC(F)(F)CC3)nc2)CC1` [Example 255, N^6′-(2-(1-(Cyclopropylsulfonyl)-1H-pyrazol-4-yl)pyrimidin-4-yl)-N^4′-(4,4-difluorocyclohexyl)-5-((1-methylpiperidin-4-yl)oxy)-[2,3′-bipyridine]-4′,6′-diamine], the IC50 in test [1] (setting [6]) amounted to 0.03 nM; in test [2] (setting [7]) it was 0.5 nM; in test [3] (setting [8]), 1.9 nM; in test [4] (setting [9]), 0.1 nM; in test [5] (setting [10]) it was 0.02 nM.
Turning to `CN1CCC(Oc2ccc(-c3cnc(Nc4ccnc(-c5cnn(CC(F)F)c5)n4)cc3N[C@H]3CC[C@@H](F)CC3)nc2)CC1` [Example 133, N^6′-(2-(1-(2,2-Difluoroethyl)-1H-pyrazol-4-yl)pyrimidin-4-yl)-N^4′-((1s,4s)-4-fluorocyclohexyl)-5-((1-methylpiperidin-4-yl)oxy)-[2,3′-bipyridine]-4′,6′-diamine], the IC50 in test [1] (setting [11]) stood at 0.3 nM; in test [2] (setting [12]) it was 1.7 nM; in test [3] (setting [13]), 9.3 nM; in test [4] (setting [14]), 0.5 nM; in test [5] (setting [15]), 1.4 nM.
For `C[C@]1(O)CC[C@@H](Nc2cc(Nc3ccnc(-c4cnn(S(=O)(=O)C5CC5)c4)n3)ncc2-c2ccc(CCC(F)(F)F)cn2)CC1` [Example 263, (1s,4s)-4-((6′-((2-(1-(Cyclopropylsulfonyl)-1H-pyrazol-4-yl)pyrimidin-4-yl)amino)-5-(3,3,3-trifluoropropyl)-[2,3′-bipyridin]-4′-yl)amino)-1-methylcyclohexan-1-ol], the IC50 in test [1] (setting [6]) was 3.4 nM; in test [2] (setting [7]) it was 23.1 nM; in test [3] (setting [8]), 14.1 nM; in test [4] (setting [9]), 8 nM; in test [5] (setting [10]), 0.9 nM.
On to `CC(C)(O)[C@H]1CC[C@@H](Nc2cc(Nc3ccnc(-c4cnn(S(=O)(=O)C5CC5)c4)n3)ncc2-c2ccc(CO)cn2)CC1` [Example 24, 2-((1s,4s)-4-((6′-((2-(1-(Cyclopropylsulfonyl)-1H-pyrazol-4-yl)pyrimidin-4-yl)amino)-5-(hydroxymethyl)-[2,3′-bipyridin]-4′-yl)amino)cyclohexyl)propan-2-ol], for which the IC50 in test [1] (setting [16]) is 0.9 nM; in test [2] (setting [17]), 2.2 nM; in test [2] (setting [12]), 1 nM; in test [3] (setting [18]) it was more than 10000 nM; in test [3] (setting [13]), 2.8 nM; in test [4] (setting [19]), 8.4 nM. Besides, the results for the IC50 in test [4] (setting [14]), in test [5] (setting [20]) and in test [5] (setting [15]) were 1 nM, 3.5 nM and 0.7 nM, respectively.
Consider `CN(C)c1ccnc(-c2cnc(Nc3ccnc(-c4cnn(S(=O)(=O)C5CC5)c4)n3)cc2N[C@H]2CC[C@@](C)(O)CC2)c1` [Example 167, (1s,4s)-4-((6′-((2-(1-(Cyclopropylsulfonyl)-1H-pyrazol-4-yl)pyrimidin-4-yl)amino)-4-(dimethylamino)-[2,3′-bipyridin]-4′-yl)amino)-1-methylcyclohexan-1-ol], for which the IC50 was 3.5 nM in test [1] (setting [21]); 45.8 nM in test [2] (IC50 del19/C797S, 100 μM ATP); more than 10000 nM in test [3] (IC50 WT, 100 μM ATP); 2.7 nM in test [4] (setting [22]); 52.2 nM in test [5] (IC50 L858R/C797S, 100 μM ATP).
Take `CN1CCN(S(=O)(=O)c2ccc(-c3cnc(Nc4ccnc(-c5cnn(S(=O)(=O)C6CC6)c5)n4)cc3N[C@H]3CC[C@@](C)(O)CC3)nc2)CC1` [Example 188, (1s,4s)-4-((6′-((2-(1-(Cyclopropylsulfonyl)-1H-pyrazol-4-yl)pyrimidin-4-yl)amino)-5-((4-methylpiperazin-1-yl)sulfonyl)-[2,3′-bipyridin]-4′-yl)amino)-1-methylcyclohexan-1-ol]: the IC50 in test [1] (setting [21]) is 1 nM; in test [2] (setting [7]), 2.3 nM; in test [2] (IC50 del19/C797S, 100 μM ATP) it was 1.8 nM; in test [3] (setting [8]), 9.5 nM; in test [3] (IC50 WT, 100 μM ATP), more than 10000 nM; in test [4] (setting [22]), 1.1 nM. Also, the IC50 in test [5] (setting [10]) came to 0.8 nM; in test [5] (IC50 L858R/C797S, 100 μM ATP), 11.3 nM.
On to `C[C@]1(O)CC[C@@H](Nc2cc(Nc3ccnc(-c4cnn(S(=O)(=O)C5CC5)c4)n3)ncc2-c2ccc(OC(F)(F)F)cn2)CC1` [Example 194, (1s,4s)-4-((6′-((2-(1-(Cyclopropylsulfonyl)-1H-pyrazol-4-yl)pyrimidin-4-yl)amino)-5-(trifluoromethoxy)-[2,3′-bipyridin]-4′-yl)amino)-1-methylcyclohexan-1-ol], for which the IC50 is 0.6 nM in test [1] (setting [6]); 2.2 nM in test [1] (setting [21]); 5.5 nM in test [2] (setting [7]); 16.9 nM in test [2] (IC50 del19/C797S, 100 μM ATP); 36.7 nM in test [3] (setting [8]); more than 10000 nM in test [3] (IC50 WT, 100 μM ATP). Moreover, the IC50 was found to be 2.5 nM in test [4] (setting [9]); 3.4 nM in test [4] (setting [22]); 3.9 nM in test [5] (setting [10]); 43.7 nM in test [5] (IC50 L858R/C797S, 100 μM ATP).
As to `CC(C)(O)[C@H]1CC[C@@H](Nc2cc(Nc3ccnc(-c4cnn(S(=O)(=O)C5CC5)c4)n3)ncc2-c2cnc(N3CCC(F)(F)CC3)cn2)CC1` [Example 72, 2-((1s,4s)-4-((2-((2-(1-(Cyclopropylsulfonyl)-1H-pyrazol-4-yl)pyrimidin-4-yl)amino)-5-(5-(4,4-difluoropiperidin-1-yl)pyrazin-2-yl)pyridin-4-yl)amino)cyclohexyl)propan-2-ol], the IC50 was 12.2 nM in test [1] (setting [16]); 1.7 nM in test [1] (setting [11]); 21.7 nM in test [2] (setting [17]); 22.4 nM in test [2] (setting [12]); more than 10000 nM in test [3] (setting [18]); 84.2 nM in test [3] (setting [13]). Also, the IC50 in test [4] (setting [19]) was 12.7 nM; in test [4] (setting [14]), 10.7 nM; in test [5] (setting [20]) it was 2430 nM; in test [5] (setting [15]) it was 61.4 nM.
In the case of `CC(C)(O)[C@H]1CC[C@@H](Nc2cc(Nc3ccnc(-c4cnn(S(=O)(=O)C5CC5)c4)n3)ncc2-c2cc(CN3CCC(F)(F)CC3)ccn2)CC1` [Example 114, 2-((1s,4s)-4-((6′-((2-(1-(Cyclopropylsulfonyl)-1H-pyrazol-4-yl)pyrimidin-4-yl)amino)-4-((4,4-difluoropiperidin-1-yl)methyl)-[2,3′-bipyridin]-4′-yl)amino)cyclohexyl)propan-2-ol], the IC50 in test [1] (setting [16]) was determined as 4.5 nM; in test [1] (setting [11]), 2.8 nM; in test [2] (setting [17]) it was 29.9 nM; in test [2] (setting [12]), 27.1 nM; in test [3] (setting [18]), 653 nM; in test [3] (setting [13]), 46.8 nM. Besides, the IC50 in test [4] (setting [19]) was 11.2 nM; in test [4] (setting [14]), 8.5 nM; in test [5] (setting [20]) it was 33.7 nM; in test [5] (setting [15]), 15.7 nM.
Consider `O=S(=O)(C1CC1)n1cc(-c2nccc(Nc3cc(N[C@H]4CC[C@@H](NCCF)CC4)c(-c4ccc(CO)cn4)cn3)n2)cn1` [Example 21, (6′-((2-(1-(Cyclopropylsulfonyl)-1H-pyrazol-4-yl)pyrimidin-4-yl)amino)-4′-(((1s,4s)-4-((2-fluoroethyl)amino)cyclohexyl)amino)-[2,3′-bipyridin]-5-yl)methanol], for which the IC50 in test [1] (setting [16]) turned out to be 0.6 nM; in test [1] (setting [11]), 0.3 nM; in test [2] (setting [17]) it was 1.2 nM; in test [2] (setting [12]), 0.5 nM; in test [3] (setting [18]), 5570 nM; in test [3] (setting [13]), 6.3 nM. The IC50 in test [4] (setting [19]) turned out to be 0.3 nM; in test [4] (setting [14]), 0.3 nM; in test [5] (setting [20]), 11.6 nM; in test [5] (setting [15]), 1 nM.
Regarding `CN1CCN(S(=O)(=O)c2ccc(-c3cnc(Nc4ccnc(-c5cnn(S(=O)(=O)C6CC6)c5)n4)cc3N[C@H]3CC[C@@H](CO)CC3)nc2)CC1` [Example 189, ((1s,4s)-4-((6′-((2-(1-(Cyclopropylsulfonyl)-1H-pyrazol-4-yl)pyrimidin-4-yl)amino)-5-((4-methylpiperazin-1-yl)sulfonyl)-[2,3′-bipyridin]-4′-yl)amino)cyclohexyl)methanol], the IC50 is 0.8 nM in test [1] (setting [21]); 2.2 nM in test [2] (setting [7]); 1.7 nM in test [2] (IC50 del19/C797S, 100 μM ATP); 6.9 nM in test [3] (setting [8]); 1770 nM in test [3] (IC50 WT, 100 μM ATP); 1.4 nM in test [4] (setting [22]). Also, the IC50 in test [5] (setting [10]) was 0.9 nM; in test [5] (IC50 L858R/C797S, 100 μM ATP) it was 7.9 nM.
`CN(C)C[C@H]1CC[C@@H](Nc2cc(Nc3ccnc(-c4cnn(S(=O)(=O)C5CC5)c4)n3)ncc2-c2ccc(C(C)(C)O)nn2)CC1` [Example 89, 2-(6-(6-((2-(1-(Cyclopropylsulfonyl)-1H-pyrazol-4-yl)pyrimidin-4-yl)amino)-4-(((1s,4s)-4-((dimethylamino)methyl)cyclohexyl)amino)pyridin-3-yl)pyridazin-3-yl)propan-2-ol]: the IC50 in test [1] (setting [16]) was 0.1 nM; in test [1] (setting [11]), 0.1 nM; in test [2] (setting [17]) it was 0.1 nM; in test [2] (setting [12]), 0.3 nM; in test [3] (setting [18]) it was 1640 nM; in test [3] (setting [13]) it was 2.7 nM. Further, the IC50 in test [4] (setting [19]) stood at 0.1 nM; in test [4] (setting [14]), 0.1 nM; in test [5] (setting [20]) it was 3.9 nM; in test [5] (setting [15]) it was 0.2 nM.
